In patent US7135466B2 (Kirin Beer Kabushiki Kaisha, priority 1999, dated 2006):

Columns and labels:
PDGF-Ra = molecular target: T1, PDGF-Ra (Homo sapiens, UniProt P16234); experiment: Inhibitory activity against PDGF-Ra phosphorylation by PDGF-AA stimulation using G292; assay type: cell-based; conditions: for IC50: > means inhibition at indicated concentration not more than 50%, < and << not less than 50%, read-out: PDGF (E) IC50; for inhibition at 0.1 µM: G292, figure within parentheses in >100( ), at 100 nM, read-out: PDGF (E) inhibition (%) at 100 nM
T1 construct: host or cells: G-292 human osteosarcoma cells
How it was run: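 In G-292 osteosarcoma cells kept overnight in 0.1% FBS, compound exposure (1 hr, 37 °C) preceded PDGF-AA stimulation at 50 ng/ml for 5 min; receptor phosphotyrosine was then detected by PY-20 capture ELISA.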

c-kit = molecular target: T2, c-kit (Homo sapiens, UniProt P10721); experiment: Inhibitory activity against c-kit autophosphorylation (MO7e cells, h-SCF); assay type: cell-based; conditions: for IC50: MO7e cells, 50 ng/ml h-SCF, read-out: c-kit IC50; for inhibition at 1 µM: Mo7e, figure within parentheses in −( ) or >1000( ), at 1000 nM
T2 construct: MO7e (human megakaryocytic leukemia cell line) which had been arrested for 20 hr; endogenous in cells; host or cells: MO7e human megakaryocytic leukemia cell line
How it was run: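 MO7e human megakaryocytic leukemia cells, arrested 20 hr, treated with compound 1 hr, then stimulated with 50 ng/ml h-SCF for 5 min and lysed. Lysates captured on immobilized anti-phosphotyrosine antibody, detected with anti-c-kit primary and HRP secondary antibody; absorbance at 450 nm.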

T1 sequence (P16234 24-1089): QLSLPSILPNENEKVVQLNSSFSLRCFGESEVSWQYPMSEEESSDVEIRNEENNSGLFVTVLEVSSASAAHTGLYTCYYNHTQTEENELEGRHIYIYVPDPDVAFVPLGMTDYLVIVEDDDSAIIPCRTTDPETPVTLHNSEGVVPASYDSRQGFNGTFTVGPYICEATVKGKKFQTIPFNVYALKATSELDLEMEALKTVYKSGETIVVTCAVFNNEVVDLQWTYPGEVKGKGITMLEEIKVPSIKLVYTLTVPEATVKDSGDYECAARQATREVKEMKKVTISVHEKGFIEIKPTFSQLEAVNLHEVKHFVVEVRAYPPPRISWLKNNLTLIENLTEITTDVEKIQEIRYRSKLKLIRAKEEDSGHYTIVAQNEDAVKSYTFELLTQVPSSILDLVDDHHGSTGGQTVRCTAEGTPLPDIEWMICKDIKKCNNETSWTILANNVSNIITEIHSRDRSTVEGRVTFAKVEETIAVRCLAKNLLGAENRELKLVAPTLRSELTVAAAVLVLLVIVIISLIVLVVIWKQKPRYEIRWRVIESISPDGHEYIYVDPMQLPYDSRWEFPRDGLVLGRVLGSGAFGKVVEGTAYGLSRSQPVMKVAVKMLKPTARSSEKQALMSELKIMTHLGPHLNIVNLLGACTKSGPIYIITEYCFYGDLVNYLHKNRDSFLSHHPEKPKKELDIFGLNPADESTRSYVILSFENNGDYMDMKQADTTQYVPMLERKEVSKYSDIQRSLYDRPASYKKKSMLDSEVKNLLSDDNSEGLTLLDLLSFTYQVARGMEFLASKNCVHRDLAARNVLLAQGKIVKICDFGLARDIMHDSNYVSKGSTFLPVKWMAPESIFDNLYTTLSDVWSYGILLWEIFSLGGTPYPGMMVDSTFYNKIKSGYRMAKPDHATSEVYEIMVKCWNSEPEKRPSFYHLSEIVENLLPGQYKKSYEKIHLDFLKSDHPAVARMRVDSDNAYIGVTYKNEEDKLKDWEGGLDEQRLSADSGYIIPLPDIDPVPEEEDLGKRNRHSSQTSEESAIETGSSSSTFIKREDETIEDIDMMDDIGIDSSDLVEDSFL
T2 sequence (P10721 26-976): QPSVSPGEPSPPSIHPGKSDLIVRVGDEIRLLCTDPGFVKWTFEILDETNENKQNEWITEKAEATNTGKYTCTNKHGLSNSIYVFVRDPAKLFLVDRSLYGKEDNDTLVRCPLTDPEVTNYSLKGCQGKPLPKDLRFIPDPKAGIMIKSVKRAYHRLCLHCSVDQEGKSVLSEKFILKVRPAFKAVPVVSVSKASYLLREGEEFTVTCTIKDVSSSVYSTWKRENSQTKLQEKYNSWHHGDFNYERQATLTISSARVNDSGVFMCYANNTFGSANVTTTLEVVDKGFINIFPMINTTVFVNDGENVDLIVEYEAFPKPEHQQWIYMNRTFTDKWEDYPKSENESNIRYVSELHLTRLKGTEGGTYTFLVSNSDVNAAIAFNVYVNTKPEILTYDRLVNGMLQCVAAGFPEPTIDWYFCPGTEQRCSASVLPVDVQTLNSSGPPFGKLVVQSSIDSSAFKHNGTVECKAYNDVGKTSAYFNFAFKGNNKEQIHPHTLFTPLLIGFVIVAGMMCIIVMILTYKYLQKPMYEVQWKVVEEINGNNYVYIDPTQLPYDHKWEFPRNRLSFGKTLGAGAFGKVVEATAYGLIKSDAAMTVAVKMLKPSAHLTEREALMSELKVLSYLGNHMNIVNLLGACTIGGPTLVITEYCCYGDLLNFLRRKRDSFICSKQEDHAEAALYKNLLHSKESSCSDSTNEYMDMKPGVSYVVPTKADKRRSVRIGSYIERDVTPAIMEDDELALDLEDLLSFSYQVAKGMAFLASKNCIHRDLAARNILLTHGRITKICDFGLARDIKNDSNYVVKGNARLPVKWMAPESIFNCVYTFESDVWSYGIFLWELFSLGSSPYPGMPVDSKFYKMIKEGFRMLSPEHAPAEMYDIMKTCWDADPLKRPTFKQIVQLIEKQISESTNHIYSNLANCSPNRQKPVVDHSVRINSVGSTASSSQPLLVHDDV

SMILES	IC50 (PDGF-Ra)	IC50 (c-kit)	inhibition at 0.1 µM (PDGF-Ra)	inhibition at 1 µM (c-kit)
CCN(CC)CCOC(=O)Nc1ccc(Oc2ncnc3cc(OC)c(OC)cc23)cc1 [Example 436, 2-(Diethylamino)ethyl N-{4-[(6,7-dimethoxy-4-quinazolinyl)oxy]phenyl}carbamate]	> 0.1 µM	0.878 µM	46%	–
CCCC(CCN1CCOCC1)OC(=O)Nc1cc(C)c(Oc2ccnc3cc(OC)c(OC)cc23)cc1C (centres unmarked) [Example 438, 1-(2-Morpholinoethyl)butyl N-{4-[(6,7-dimethoxy-4-quinolyl)oxy]-2,5-dimethylphenyl}carbamate]	> 0.1 µM	0.414 µM	41%	–
CCCC(CCN1CCOCC1)OC(=O)Nc1ccc(Oc2ccnc3cc(OC)c(OC)cc23)c(C)c1C (centres unmarked) [Example 439, 1-(2-Morpholinoethyl)butyl N-{4-[(6,7-dimethoxy-4-quinolyl)oxy]-2,3-dimethylphenyl}carbamate]	0.052 µM	0.224 µM	–	–
CCCC(CCN(CC)CC)OC(=O)Nc1cc(C)c(Oc2ccnc3cc(OC)c(OC)cc23)cc1C (centres unmarked) [Example 442, 1-[2-(Diethylamino)ethyl]butyl N-{4-[(6,7-dimethoxy-4-quinolyl)oxy]-2,5-dimethylphenyl}carbamate]	> 0.1 µM	–	32%	28%
CCCC(CCN1CCCCC1)OC(=O)Nc1ccc(Oc2ccnc3cc(OC)c(OC)cc23)cc1 (centres unmarked) [Example 445, 1-(2-Piperidinoethyl)butyl N-{4-[(6,7-dimethoxy-4-quinolyl)oxy]phenyl}carbamate]	> 0.1 µM	0.941 µM	11%	–
CCCC(CCN1CCCCC1)OC(=O)Nc1cc(C)c(Oc2ccnc3cc(OC)c(OC)cc23)cc1C (centres unmarked) [Example 446, 1-(2-Piperidinoethyl)butyl N-{4-[(6,7-dimethoxy-4-quinolyl)oxy]-2,5-dimethylphenyl}carbamate]	> 0.1 µM	–	39%	40%
CCCC(CCN1CCCCC1)OC(=O)Nc1ccc(Oc2ccnc3cc(OC)c(OC)cc23)c(C)c1C (centres unmarked) [Example 447]	> 0.1 µM	0.553 µM	11%	–
CCCC(CCN1CCCCC1)OC(=O)Nc1ccc(Oc2ncnc3cc(OC)c(OC)cc23)cc1 (centres unmarked) [Example 448, 1-(2-Piperidinoethyl)butyl N-{4-[(6,7-dimethoxy-4-quinazolinyl)oxy]phenyl}carbamate]	> 0.1 µM	–	39%	25%
CCCC(CCN1CCN(C)CC1)OC(=O)Nc1ccc(Oc2ccnc3cc(OC)c(OC)cc23)cc1 (centres unmarked) [Example 449, 1-[2-(4-Methylpiperazino)ethyl]butyl N-{4-[(6,7-dimethoxy-4-quinolyl)oxy]phenyl}carbamate]	> 0.1 µM	0.747 µM	26%	–
CCCC(CCN1CCN(C)CC1)OC(=O)Nc1cc(C)c(Oc2ccnc3cc(OC)c(OC)cc23)cc1C (centres unmarked) [Example 450, 1-[2-(4-Methylpiperazino)ethyl]butyl N-{4-[(6,7-dimethoxy-4-quinolyl)oxy]-2,5-dimethylphenyl}carbamate]	> 0.1 µM	–	13%	46%
CCCC(CCN1CCN(C)CC1)OC(=O)Nc1ccc(Oc2ccnc3cc(OC)c(OC)cc23)c(C)c1C (centres unmarked) [Example 451, 1-[2-(4-Methylpiperazino)ethyl]butyl N-{4-[(6,7-dimethoxy-4-quinolyl)oxy]-2,3-dimethylphenyl}carbamate]	> 0.1 µM	0.613 µM	25%	–
CCCC(CCN1CCN(C)CC1)OC(=O)Nc1ccc(Oc2ncnc3cc(OC)c(OC)cc23)cc1 (centres unmarked) [Example 452, 1-[2-(4-Methylpiperazino)ethyl]butyl N-{4-[(6,7-dimethoxy-4-quinazolinyl)oxy]phenyl}carbamate]	> 0.1 µM	–	31%	37%
COc1cc2nccc(Oc3ccc(NC(=O)Oc4cccc(C#N)c4)c(C)c3C)c2cc1OC [Example 459, 3-Cyanophenyl N-{4-[(6,7-dimethoxy-4-quinolyl)oxy]-2,3-dimethylphenyl}carbamate]	0.047 µM	< 0.03 µM	–	–
COc1cc2nccc(Oc3ccc(NC(=O)OC4CCCN(C)C4)cc3)c2cc1OC (centres unmarked) [Example 462, 1-Methyl-3-piperidyl N-{4-[(6,7-dimethoxy-4-quinolyl)oxy]phenyl}carbamate]	0.052 µM	0.575 µM	–	–
COc1cc2nccc(Oc3cc(C)c(NC(=O)OC4CCCN(C)C4)cc3C)c2cc1OC (centres unmarked) [Example 463, 1-Methyl-3-piperidyl N-{4-[(6,7-dimethoxy-4-quinolyl)oxy]-2,5-dimethylphenyl}carbamate]	0.091 µM	0.432 µM	–	–
COc1cc2nccc(Oc3ccc(NC(=O)OC4CCCN(C)C4)c(C)c3C)c2cc1OC (centres unmarked) [Example 464, 1-Methyl-3-piperidyl N-{4-[(6,7-dimethoxy-4-quinolyl)oxy]-2,3-dimethylphenyl}carbamate]	0.055 µM	0.201 µM	–	–
COc1cc2ncnc(Oc3ccc(NC(=O)OC4CCN(C)CC4)cc3)c2cc1OC [Example 469, 1-Methyl-4-piperidyl N-{4-[(6,7-dimethoxy-4-quinazolinyl)oxy]phenyl}carbamate]	> 0.1 µM	–	0%	28%

Further compounds by falling IC50 (PDGF-Ra), results first:

IC50 (PDGF-Ra)	IC50 (c-kit)	inhibition at 0.1 µM (PDGF-Ra)	inhibition at 1 µM (c-kit)	SMILES
0.048 µM	0.25 µM	–	–	CCCC(CCN1CCOCC1)OC(=O)Nc1ccc(Oc2ccnc3cc(OC)c(OC)cc23)cc1 (centres unmarked) [Example 437, 1-(2-Morpholinoethyl)butyl N-{4-[(6,7-dimethoxy-4-quinolyl)oxy]phenyl}carbamate]
0.047 µM	0.351 µM	–	–	CCCC(CCN1CCOCC1)OC(=O)Nc1ccc(Oc2ncnc3cc(OC)c(OC)cc23)cc1 (centres unmarked) [Example 440]
0.033 µM	0.445 µM	–	–	CCN(CC)CCOC(=O)Nc1ccc(Oc2ccnc3cc(OC)c(OC)cc23)cc1 [Example 435, 2-(Diethylamino)ethyl N-{4-[(6,7-dimethoxy-4-quinolyl)oxy]phenyl}carbamate]
0.026 µM	0.128 µM	–	–	COc1cc2nccc(Oc3ccc(NC(=O)OC4CCOCC4)cc3)c2cc1OC [Example 470, Tetrahydro-2H-4-pyranyl N-{4-[(6,7-dimethoxy-4-quinolyl)oxy]phenyl}carbamate]
0.021 µM	0.972 µM	–	–	CCCC(CCN(CC)CC)OC(=O)Nc1ccc(Oc2ncnc3cc(OC)c(OC)cc23)cc1 (centres unmarked) [Example 444, 1-[2-(Diethylamino)ethyl]butyl N-{4-[(6,7-dimethoxy-4-quinazolinyl)oxy]phenyl}carbamate]
0.02 µM	< 0.03 µM	–	–	COc1cc2ncnc(Oc3ccc(NC(=O)OCc4ccncc4)cc3)c2cc1OC [Example 434, 4-Pyridylmethyl N-{4-[(6,7-dimethoxy-4-quinazolinyl)oxy]phenyl}carbamate]
0.015 µM	0.627 µM	–	–	CCCC(CCN(CC)CC)OC(=O)Nc1ccc(Oc2ccnc3cc(OC)c(OC)cc23)c(C)c1C (centres unmarked) [Example 443, 1-[2-(Diethylamino)ethyl]butyl N-{4-[(6,7-dimethoxy-4-quinolyl)oxy]-2,3-dimethylphenyl}carbamate]
0.011 µM	< 0.03 µM	–	–	COc1cc2nccc(Oc3ccc(NC(=O)OCc4ccncc4)cc3)c2cc1OC [Example 433, 4-Pyridylmethyl N-{4-[(6,7-dimethoxy-4-quinolyl)oxy]phenyl}carbamate]
